# Results reported in PubChem BioAssay (NCI).
#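 Step 1: Grow cells in 96-well plates. Step 2: Expose to compound for 48 hours at 5 concentrations. Step 3: Interpolate endpoints linearly; if unreached, use highest concentration. Abbreviation: GI50, concentration required for 50% inhibition of growth. TGI denotes the concentration required for complete inhibition of growth.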
# Columns and labels:
# Test in all cases: NCI tumour cell line growth inhibition, 48 h
# A498 renal = test system: A498 renal
# NCI/ADR-RES ovarian = test system: NCI/ADR-RES ovarian
# TK-10 renal = test system: TK-10 renal
# MDA-MB-435 = test system: MDA-MB-435
# HOP-62 NSCLC = test system: HOP-62 NSCLC
# SN12C renal = test system: SN12C renal
# HCC-2998 colon = test system: HCC-2998 colon
# SF-295 CNS = test system: SF-295 CNS
# U251 CNS = test system: U251 CNS
# KM12 colon = test system: KM12 colon
# OVCAR-4 ovarian = test system: OVCAR-4 ovarian
# HS 578T breast = test system: HS 578T breast
# DU-145 prostate = test system: DU-145 prostate
# NCI-H23 lung = test system: NCI-H23 lung
# SNB-75 CNS = test system: SNB-75 CNS
# UO-31 renal = test system: UO-31 renal
# SK-MEL-5 melanoma = test system: SK-MEL-5 melanoma
# MCF7 breast = test system: MCF7 breast
# UACC-257 melanoma = test system: UACC-257 melanoma
# M14 melanoma = test system: M14 melanoma
# SK-MEL-2 melanoma = test system: SK-MEL-2 melanoma
# MOLT-4 leukemia = test system: MOLT-4 leukemia
# SF-268 CNS = test system: SF-268 CNS
# CAKI-1 renal = test system: CAKI-1 renal
# SF-539 CNS = test system: SF-539 CNS
# OVCAR-3 ovarian = test system: OVCAR-3 ovarian
# UACC-62 melanoma = test system: UACC-62 melanoma
# IGROV1 ovarian = test system: IGROV1 ovarian
# HCT-15 colon = test system: HCT-15 colon
# NCI-H522 lung = test system: NCI-H522 lung
# T-47D breast = test system: T-47D breast
# PC-3 prostate = test system: PC-3 prostate
# NCI-H226 lung = test system: NCI-H226 lung
# ACHN renal = test system: ACHN renal
# HCT-116 colon = test system: HCT-116 colon
# SW-620 colon = test system: SW-620 colon
# SR leukemia = test system: SR leukemia
# MDA-MB-468 breast = test system: MDA-MB-468 breast
# MALME-3M melanoma = test system: MALME-3M melanoma
# K-562 leukemia = test system: K-562 leukemia
# RPMI-8226 leukemia = test system: RPMI-8226 leukemia
# RXF 393 renal = test system: RXF 393 renal
# LOX IMVI melanoma = test system: LOX IMVI melanoma
# A549 NSCLC = test system: A549 NSCLC
# MDA-MB-231 breast = test system: MDA-MB-231 breast
# HOP-92 NSCLC = test system: HOP-92 NSCLC
# SNB-19 CNS = test system: SNB-19 CNS
# COLO 205 colon = test system: COLO 205 colon
# SK-MEL-28 melanoma = test system: SK-MEL-28 melanoma
# SK-OV-3 ovarian = test system: SK-OV-3 ovarian
# OVCAR-5 ovarian = test system: OVCAR-5 ovarian
# OVCAR-8 ovarian = test system: OVCAR-8 ovarian
# 786-0 renal = test system: 786-0 renal
# BT-549 breast = test system: BT-549 breast
# HT29 colon = test system: HT29 colon
# CCRF-CEM leukemia = test system: CCRF-CEM leukemia
# EKVX NSCLC = test system: EKVX NSCLC
# HL-60(TB) leukemia = test system: HL-60(TB) leukemia
# NCI-H460 lung = test system: NCI-H460 lung
compound,measurement,setting,value
COc1ccc(-c2nc(S(=O)(=O)c3ccccc3)c(S(C)(=O)=O)o2)cc1,GI50,A498 renal,15.5 µM
same,TGI,A498 renal,29 µM
same,GI50,NCI/ADR-RES ovarian,17 µM
same,TGI,NCI/ADR-RES ovarian,48 µM
same,GI50,TK-10 renal,7.5 µM
same,TGI,TK-10 renal,21 µM
same,GI50,MDA-MB-435,8.96 µM
same,TGI,MDA-MB-435,21.8 µM
same,GI50,HOP-62 NSCLC,18.2 µM
same,TGI,HOP-62 NSCLC,35.2 µM
same,GI50,SN12C renal,11.4 µM
same,TGI,SN12C renal,23.5 µM
same,GI50,HCC-2998 colon,15 µM
same,TGI,HCC-2998 colon,29 µM
same,GI50,SF-295 CNS,15.7 µM
same,TGI,SF-295 CNS,29.6 µM
same,GI50,U251 CNS,17.7 µM
same,TGI,U251 CNS,34.3 µM
same,GI50,KM12 colon,17.6 µM
same,TGI,KM12 colon,35.7 µM
same,GI50,OVCAR-4 ovarian,3.44 µM
same,TGI,OVCAR-4 ovarian,15.4 µM
same,GI50,HS 578T breast,12.8 µM
same,TGI,HS 578T breast,48.4 µM
same,GI50,DU-145 prostate,6.26 µM
same,TGI,DU-145 prostate,20.4 µM
same,GI50,NCI-H23 lung,12 µM
same,TGI,NCI-H23 lung,27.2 µM
same,GI50,SNB-75 CNS,11.3 µM
same,TGI,SNB-75 CNS,23.7 µM
same,GI50,UO-31 renal,5.43 µM
same,TGI,UO-31 renal,18.3 µM
same,GI50,SK-MEL-5 melanoma,15.2 µM
same,TGI,SK-MEL-5 melanoma,29.1 µM
same,GI50,MCF7 breast,2.46 µM
same,TGI,MCF7 breast,8.25 µM
same,GI50,UACC-257 melanoma,13 µM
same,TGI,UACC-257 melanoma,28 µM
same,GI50,M14 melanoma,3.26 µM
same,TGI,M14 melanoma,14.3 µM
same,GI50,SK-MEL-2 melanoma,14.2 µM
same,TGI,SK-MEL-2 melanoma,28 µM
same,GI50,MOLT-4 leukemia,3.39 µM
same,TGI,MOLT-4 leukemia,13.2 µM
same,GI50,SF-268 CNS,14.4 µM
same,TGI,SF-268 CNS,33.9 µM
same,GI50,CAKI-1 renal,2.59 µM
same,TGI,CAKI-1 renal,10.9 µM
same,GI50,SF-539 CNS,3.93 µM
same,TGI,SF-539 CNS,14.6 µM
same,GI50,OVCAR-3 ovarian,1.74 µM
same,TGI,OVCAR-3 ovarian,3.33 µM
same,GI50,UACC-62 melanoma,11.2 µM
same,TGI,UACC-62 melanoma,23.2 µM
same,GI50,IGROV1 ovarian,13.1 µM
same,TGI,IGROV1 ovarian,27.2 µM
same,GI50,HCT-15 colon,2.04 µM
same,TGI,HCT-15 colon,4.62 µM
same,GI50,NCI-H522 lung,1.65 µM
same,TGI,NCI-H522 lung,3.32 µM
same,GI50,T-47D breast,2.16 µM
same,TGI,T-47D breast,5.03 µM
same,GI50,PC-3 prostate,14.1 µM
same,TGI,PC-3 prostate,30 µM
same,GI50,NCI-H226 lung,18.2 µM
same,TGI,NCI-H226 lung,40.9 µM
same,GI50,ACHN renal,1.7 µM
same,TGI,ACHN renal,3.13 µM
same,GI50,HCT-116 colon,1.99 µM
same,TGI,HCT-116 colon,4.58 µM
same,GI50,SW-620 colon,1.67 µM
same,TGI,SW-620 colon,3.39 µM
same,GI50,SR leukemia,2.66 µM
same,TGI,SR leukemia,25.6 µM
same,GI50,MDA-MB-468 breast,2.24 µM
same,TGI,MDA-MB-468 breast,4.41 µM
same,GI50,MALME-3M melanoma,1.67 µM
same,TGI,MALME-3M melanoma,3.1 µM
same,GI50,K-562 leukemia,2.77 µM
same,TGI,K-562 leukemia,> 100 µM
same,GI50,RPMI-8226 leukemia,3.97 µM
same,TGI,RPMI-8226 leukemia,> 100 µM
same,GI50,RXF 393 renal,2.07 µM
same,TGI,RXF 393 renal,4.09 µM
same,GI50,LOX IMVI melanoma,1.54 µM
same,TGI,LOX IMVI melanoma,2.92 µM
same,GI50,A549 NSCLC,19.1 µM
same,TGI,A549 NSCLC,42.1 µM
same,GI50,MDA-MB-231 breast,3.52 µM
same,TGI,MDA-MB-231 breast,12.2 µM
same,GI50,HOP-92 NSCLC,7.29 µM
same,TGI,HOP-92 NSCLC,20.8 µM
same,GI50,SNB-19 CNS,16.5 µM
same,TGI,SNB-19 CNS,31.8 µM
same,GI50,COLO 205 colon,2.22 µM
same,TGI,COLO 205 colon,4.9 µM
same,GI50,SK-MEL-28 melanoma,12.5 µM
same,TGI,SK-MEL-28 melanoma,25.2 µM
same,GI50,SK-OV-3 ovarian,21.7 µM
same,TGI,SK-OV-3 ovarian,44.9 µM
same,GI50,OVCAR-5 ovarian,14.4 µM
same,TGI,OVCAR-5 ovarian,27.9 µM
same,GI50,OVCAR-8 ovarian,13.6 µM
same,TGI,OVCAR-8 ovarian,32.1 µM
same,GI50,786-0 renal,2.08 µM
same,TGI,786-0 renal,4.98 µM
same,GI50,BT-549 breast,10.1 µM
same,TGI,BT-549 breast,22.6 µM
same,GI50,HT29 colon,3.15 µM
same,TGI,HT29 colon,9.31 µM
same,GI50,CCRF-CEM leukemia,2.07 µM
same,TGI,CCRF-CEM leukemia,6.22 µM
same,GI50,EKVX NSCLC,12.2 µM
same,TGI,EKVX NSCLC,26.6 µM
same,GI50,HL-60(TB) leukemia,2.38 µM
same,TGI,HL-60(TB) leukemia,20.9 µM
same,GI50,NCI-H460 lung,13.9 µM
same,TGI,NCI-H460 lung,29.7 µM
